Reference: patent US20090117599A1, “METHOD OF DETECTING SUGAR CHAINS HAVING GlcNAc TRANSFERRED BY GnT-V” (priority 2005, published 2009)

Key:
[1] = target: Boletopsis leucomelas lectin (BLL); experiment: Frontal affinity chromatography (FAC) on immobilized BLL lectin column; assay type: binding; conditions: for affinity of BLL for pNP glycosides (in words): pNP-sugar chain 5 μM, FIG. 3(A) right
Description: (§1) It is preferable to use the frontal affinity chromatography (FAC) method for measuring the binding constant between lectin and sugar chain.
(§2) […] each of pyridylaminated sugar chains (PA-sugar chains) is continuously poured into two buffered lectin columns at a flow rate of 0.125 ml/min. The PA-sugar chain has been diluted to the concentration (2.5 nM) which is sufficiently lower than the dissociation constant (Kd) of a lectin in a buffer solution for analysis (10 mM Tris-HCl buffer solution (pH 7.4) containing 0.8% NaCl). Elution of the PA-sugar chain from the column is detected with use of a fluorescence detector (with exciting wavelength/fluorescence wavelength: 310 nm/380 nm).
(§3) Then, the binding constant (Ka) between the sugar chain and the lectin is determined from V-V0 and Bt based on the FAC reference equation.
(§4) BLL was dissolved in 0.2M NaHCO3 buffer solution (pH 8.3) containing 0.5M NaCl, and bound with NHS-activated Sepharose (GE Healthcare Bioscience, Uppsala, Sweden) according to the operation manual of the manufacturer. The lectin-Sepharose was suspended in 10 mM Tris-HCl buffer solution (pH 7.4, TBS buffer solution) containing 0.8% NaCl, and filled in a miniature column (+2 mm×10 mm, 31.4 μl). A GSL-II lectin column was prepared in a similar manner.
(§5) A frontal affinity chromatography was carried out with use of an FAC automated analysis system (FAC-1, Shimadzu Corporation). More specifically, the lectin column prepared as described above was inserted in a stainless holder and connected to the FAC-1 system.
(§6) The flow rate and column temperature were kept at 0.125 ml/min and 25 °C, respectively. […]
(§7) Eluates of pNP-sugar chain and PA-sugar chain were monitored by measuring UV (280 nm) and fluorescence (with the exciting wavelength 310 nm and the fluorescence wave length 380 nm). A front end eluate (i.e., V-V0) was measured with respect to a standard oligosaccharide (PA-lactose). In addition, the dissociation constant (Kd) was determined from V-V0 and Bt based on the FAC reference equation. Note that the binding constant Ka is determined by the equation Ka=1/Kd.
(§8) Analysis of the concentration dependency was carried out to measure the effective ligand concentration Bt. […] Next, V-V0 (the delay of the eluted front end) was calculated in accordance with the method developed by Arata (“Application of reinforced frontal affinity chromatography and advanced processing procedure to the study of the binding property of a Caenorhabditis elegans galectin”, J Chromatogr A. 905, 337-43). A Hofstee-type plot ((V-V0) vs. (V-V0) [A]0) was created, and Bt and Kd were respectively determined from the intercept and the slope of the approximate curve. […]

[2] = target: Griffonia simplicifolia lectin II (GSL-II) (Griffonia simplicifolia, UniProt Q41263); experiment: Frontal affinity chromatography (FAC) on immobilized GSL-II lectin column; assay type: binding; conditions: for affinity of GSL-II for pNP glycosides (in words): pNP-sugar chain 5 μM, FIG. 3(A) left
Description: as §1, §2, §3, §4, §5, §6, §7, §8

Chain of Griffonia simplicifolia lectin II (GSL-II) (Q41263 entry or part of it): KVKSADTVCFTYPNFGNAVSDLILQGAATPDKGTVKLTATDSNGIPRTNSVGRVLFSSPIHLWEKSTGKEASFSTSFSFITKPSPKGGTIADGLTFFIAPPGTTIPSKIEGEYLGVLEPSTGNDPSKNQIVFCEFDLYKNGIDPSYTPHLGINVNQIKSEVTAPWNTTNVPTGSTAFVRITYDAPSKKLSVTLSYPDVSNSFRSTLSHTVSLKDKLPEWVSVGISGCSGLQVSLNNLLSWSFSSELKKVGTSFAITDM

Structure (SMILES) | Ka ([1]; pNP derivatives (5 μM), FAC, 25 C, TBS pH 7.4) [M⁻¹] | affinity of BLL for pNP glycosides (in words) [1] | Kd [2] [µM] | affinity of GSL-II for pNP glycosides (in words) [2] | binding relative to that of the other anomer ([2]; GSL-II, pNP glycosides)
CC(=O)N[C@H]1[C@@H](Oc2ccc([N+](=O)[O-])cc2)O[C@H](CO)[C@H](O)[C@@H]1O[C@@H]1O[C@H](CO)[C@H](O)[C@H](O)[C@H]1O [Galβ1-3GalNAcα-pNP, Galβ1-3 GalNAcα-pNP] | 90000 | remarkable affinity |  |  | 
CC(=O)N[C@H]1[C@@H](Oc2ccc([N+](=O)[O-])cc2)O[C@H](CO)[C@@H](O)[C@@H]1O [GlcNAcα-pNP] |  | did not show remarkable affinity | 7.14 | strongest affinity | 
CC(=O)N[C@H]1[C@H](Oc2ccc([N+](=O)[O-])cc2)O[C@H](CO)[C@@H](O)[C@@H]1O [GlcNAcβ-pNP] |  | did not show remarkable affinity |  | remarkable affinity | 1/7
